# Experimental data: patent publication EP4817688A2, “DEGRADING PKCß1 TO TREAT CANCER” (Mayo Foundation for Medical Education and Research, priority 2020, dated 2022)
# Key:
# MDAH-2774 cells = experiment: crystal violet (CV) proliferation assay, MDAH-2774; assay type: cell-based; conditions: Homo sapiens; MDAH-2774 (PKCβ1^high) 1000 cells/well; read-out: Approximate IC50
# Procedure: Cell proliferation rates were determined using crystal violet assays. One thousand cells per well were plated in 96 well tissue culture plates and treated the following day with a bifunctional compound or control for 7 days in replicates of 8. Cells were fixed with 25% glutaraldehyde for 10 minutes with shaking, washed 5 times with distilled water, stained with a 1% crystal violet solution (solubilized in 25% methanol) for 10 minutes, washed again 5 times and allowed to dry. De-staining was performed using […] sodium citrate in 50% ethanol followed by quantification using a 96 well spectrophotometer set at an absorbance of 550 nm.
# Based on the potent anti-proliferative activity of ENDX-PROTACs TC-Pr-006, TC-Pr-007, TC-Pr -008, and TC-Pr -009 in TNBC cells, the efficacy of these compounds for inhibiting the growth of ovarian cancer cells was tested. This analysis utilized KURAMOCHI cells, which represent the high-grade serous subtype (the most malignant form that accounts for 70% of all ovarian cancers and associates with poor clinical outcome) and MDAH-2774 cells, which represent endometrioid ovarian cancer and accounts for 20% of all ovarian cancer. PKCβ1 was confirmed to be expressed in both ovarian cancer cell line models, with MDAH-2774 cells expressing higher amounts of PKCβ1 compared to KURAMOCHI cells (FIG. 5A). […]
# [1] = test system: PKCβ1, E2F1, and Cyclin D1; experiment: western blot in BT549 and MDAMB436 cells (Example 6); assay type: cell-based; conditions: 1 µM, 24, 48, and 72 hours
# Procedure: TNBC BT549 and MDAMB436 cells were cultured in phenol-red free DMEM/F12 medium supplemented with 10% fetal bovine serum (FBS) and 1% AA. On day 1, cells were plated at a density of 2 x 10^5 BT549 cells or 4 x 10^5 MDAMB436 cells in a 6-well plate (two wells per treatment). The next day, cells were treated with DMSO, 1 µM Pr-9 (positive control), 1 µM Pr-9-1, 1 µM Pr-9-4, or 1 µM ENDX (negative control). Radioimmunoprecipitation Assay (RIPA) protein lysates were collected 24, 48, and 72 hours after treatment.
# For western blot analysis, 25 µg of protein lysates were run on Criterion precast 10% Bis-Tris gel, transferred to PVDF membrane, incubated in TBST-5% milk for one hour, and then incubated overnight with PKCβ1 (SC8049, mouse, 1:200), E2F1 (SC251, mouse, 1:250), Cyclin D1 (CS2978, rabbit, 1:1000), or Actin (Sigma A2228, mouse, 1:10,000 or CS8457, rabbit, 1:2000) primary antibodies in TBST-5% BSA solution. Membranes were washed in TBS-T, incubated for one-hour in HRP-linked anti-rabbit or anti-mouse secondary antibodies in TBST-5% milk, and washed in TBS-T. Bands were developed using west-pico or west-femto chemiluminescent substrate reagents.
smiles,measurement,setting,value
"CCC(=C(c1ccc(O)cc1)c1ccc(OCCN(C)C(=O)COCCOCCNC(=O)Cc2ccc3c(c2)CN(C2CCC(=O)NC2=O)C3=O)cc1)c1ccccc1 (stereo not drawn) [TC-Pr-009, 2-[2-(2-2-[2-(2,6-dioxopiperidin-3-yl)-1-oxo-2,3-dihydro-1H-isoindol-5-yl]acetamidoethoxy)ethoxy]-N-(2-4-[1-(4-hydroxyphenyl)-2-phenylbut-1-en-1-yl]phenoxyethyl)-N-methylacetamide]",IC50,MDAH-2774 cells,1 to 10 µM
same,PKCβ1 protein levels,[1],altered to varying extent
same,protein levels of E2F1 and Cyclin D1,[1]; listed as Pr-9,clearly reduced
